In ChEMBL document CHEMBL5154832, “Design, Synthesis, and Proof-of-Concept of Triple-Site Inhibitors against Aminoacyl-tRNA Synthetases” (J Med Chem, 2022):
≈ marks a conversion by molar mass, not a printed value.

What was measured:
Salmonella enterica [1] = assay: Antibacterial activity against Salmonella enterica 87 strain assessed as inhibition of bacterial growth incubated in M9 medium for 8 hrs by CLSI protocol based microdilution assay; assay type: functional
[2] = molecular target: T1, Threonine--tRNA ligase (Salmonella enterica) (UniProt A0A3F3IEK2); assay: Binding affinity to recombinant salmonella enterica threonyl-tRNA synthetase assessed as change in melting temperature at 0.1 mM by fluorescence-based thermal shift assay
T1 sequence (whole entry): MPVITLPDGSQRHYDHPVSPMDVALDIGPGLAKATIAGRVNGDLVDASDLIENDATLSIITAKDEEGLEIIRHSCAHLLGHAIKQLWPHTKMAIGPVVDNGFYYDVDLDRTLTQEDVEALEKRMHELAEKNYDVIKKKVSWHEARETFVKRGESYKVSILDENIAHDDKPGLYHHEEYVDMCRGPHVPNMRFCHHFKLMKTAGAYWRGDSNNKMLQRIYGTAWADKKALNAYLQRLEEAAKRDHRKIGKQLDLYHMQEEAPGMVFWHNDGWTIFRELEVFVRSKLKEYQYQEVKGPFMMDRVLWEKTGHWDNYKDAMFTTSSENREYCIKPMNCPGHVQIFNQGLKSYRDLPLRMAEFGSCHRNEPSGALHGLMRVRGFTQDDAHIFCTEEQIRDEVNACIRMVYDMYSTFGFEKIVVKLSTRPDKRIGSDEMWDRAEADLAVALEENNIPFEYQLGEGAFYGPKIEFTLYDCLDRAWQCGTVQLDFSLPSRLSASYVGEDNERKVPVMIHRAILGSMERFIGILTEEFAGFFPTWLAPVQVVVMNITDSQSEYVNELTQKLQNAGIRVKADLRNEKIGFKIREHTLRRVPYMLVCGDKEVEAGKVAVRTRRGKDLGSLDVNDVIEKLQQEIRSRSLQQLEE

Enterococcus faecalis = assay: Antibacterial activity against Enterococcus faecalis ATCC 29212 strain assessed as inhibition of bacterial growth incubated for 8 hrs by CLSI protocol based microdilution assay; assay type: functional
Staphylococcus aureus [3] = assay: Antibacterial activity against Staphylococcus aureus ATCC 29213 strain assessed as inhibition of bacterial growth incubated for 8 hrs by CLSI protocol based microdilution assay; assay type: functional
Staphylococcus aureus [4] = assay: Antibacterial activity against Staphylococcus aureus MRSA R3708 strain assessed as inhibition of bacterial growth incubated for 8 hrs by CLSI protocol based microdilution assay; assay type: functional
Escherichia coli [5] = assay: Antibacterial activity against Escherichia coli ATCC 25922 strain assessed as inhibition of bacterial growth incubated for 8 hrs by CLSI protocol based microdilution assay; assay type: functional
Salmonella enterica [6] = assay: Antibacterial activity against Salmonella enterica 87 strain assessed as inhibition of bacterial growth incubated for 8 hrs by CLSI protocol based microdilution assay; assay type: functional
Pseudomonas aeruginosa = assay: Antibacterial activity against Pseudomonas aeruginosa ATCC27853 strain assessed as inhibition of bacterial growth incubated for 8 hrs by CLSI protocol based microdilution assay; assay type: functional
Escherichia coli [7] = assay: Antibacterial activity against Escherichia coli acraB strain assessed as inhibition of bacterial growth incubated for 8 hrs by CLSI protocol based microdilution assay; assay type: functional
[8] = molecular target: T1, Threonine--tRNA ligase (Salmonella enterica); assay: Inhibition of recombinant salmonella enterica threonyl-tRNA synthetase assessed as reduction in enzyme activity at 10 uM incubated for 20 min by Kinase Glo luminescence assay relative to control
Threonine--tRNA ligase [9] = molecular target: T2, Threonine--tRNA ligase (Salmonella enterica, UniProt A0A3F3IEK2); assay: Binding affinity to full length recombinant salmonella enterica threonyl-tRNA synthetase assessed as dissociation constant in presence of tRNA Threonine by isothermal titration calorimetry assay
T2 sequence (A0A3F3IEK2 whole entry): T1 sequence (whole entry)

Threonine--tRNA ligase [10] = molecular target: T2, Threonine--tRNA ligase; assay: Binding affinity to full length recombinant salmonella enterica threonyl-tRNA synthetase assessed as dissociation constant in presence of tRNA Leucine by isothermal titration calorimetry assay
Threonine--tRNA ligase [11] = molecular target: T2, Threonine--tRNA ligase; assay: Binding affinity to full length recombinant salmonella enterica threonyl-tRNA synthetase assessed as dissociation constant by isothermal titration calorimetry assay
Threonine--tRNA ligase [12] = molecular target: T2, Threonine--tRNA ligase; assay: Inhibition of recombinant salmonella enterica threonyl-tRNA synthetase assessed as reduction in enzyme activity incubated for 20 min by Kinase Glo luminescence assay
Threonine--tRNA ligase [13] = molecular target: T2, Threonine--tRNA ligase; assay: Binding affinity to full length recombinant salmonella enterica threonyl-tRNA synthetase assessed as dissociation constant in presence of L-threonine by isothermal titration calorimetry assay
Threonine--tRNA ligase [14] = molecular target: T2, Threonine--tRNA ligase; assay: Binding affinity to full length recombinant salmonella enterica threonyl-tRNA synthetase assessed as dissociation constant in presence of ATP by isothermal titration calorimetry assay
Threonine--tRNA ligase [15] = molecular target: T2, Threonine--tRNA ligase; assay: Binding affinity to full length recombinant salmonella enterica threonyl-tRNA synthetase assessed as dissociation constant in presence of glycine by isothermal titration calorimetry assay

MIC (Salmonella enterica [1]) [µg/mL]	ΔTm [2] [°C]	MIC (Enterococcus faecalis) [µg/mL]	MIC (Staphylococcus aureus [3]) [µg/mL]	MIC (Staphylococcus aureus [4]) [µg/mL]	MIC (Escherichia coli [5]) [µg/mL]	MIC (Salmonella enterica [6]) [µg/mL]	MIC (Pseudomonas aeruginosa) [µg/mL]	MIC (Escherichia coli [7]) [µg/mL]	inhibition [8] [%]	Kd (Threonine--tRNA ligase [9]) [nM]	Kd (Threonine--tRNA ligase [10]) [nM]	Kd (Threonine--tRNA ligase [11]) [nM]	IC50 (Threonine--tRNA ligase [12]) [nM]	Kd (Threonine--tRNA ligase [13]) [nM]	Kd (Threonine--tRNA ligase [14]) [nM]	Kd (Threonine--tRNA ligase [15]) [nM]	Compound
16 (≈ 41.5 µM)	17.6	64 (≈ 166 µM)	≥ 128	≥ 128	≥ 128	64 (≈ 166 µM)	≥ 128	64 (≈ 166 µM)	45								C[C@@H](O)[C@H](N)C(=O)NCC=CCn1cnc2cc(Cl)c(Cl)cc2c1=O
	33.6	≥ 128	≥ 128	≥ 128	≥ 128	≥ 128	≥ 128	≥ 128	> 99	166	36.8	35.4	19	290	75.1	44.4	C[C@@H](O)[C@H](N)C(=O)N[C@@H](CNC(=O)CCn1cnc2cc(Cl)c(Cl)cc2c1=O)c1cccc(-c2ccc3c(c2)CNC3=O)c1
	25.9	4 (≈ 6.15 µM)	2 (≈ 3.07 µM)	4 (≈ 6.15 µM)	≥ 128	≥ 128	4 (≈ 6.15 µM)	8 (≈ 12.3 µM)	> 99				580				C[C@@H](O)[C@H](N)C(=O)N[C@@H](CNC(=O)CCn1cnc2cc(Cl)c(Cl)cc2c1=O)c1cccc(-c2ccc(C(F)(F)F)cc2)c1
